# Assay results from ChEMBL document CHEMBL3991601, “The target landscape of clinical kinase drugs” (Science, 2017).
# Active and inactive are the calls of the source. For most assays here, no stated cut-off is given here; in the data, actives have a measured Kd and inactives only a lower limit.
# Molecular target: T1, Serine/threonine-protein kinase ULK1 (Homo sapiens, UniProt O75385)
# T1 sequence (O75385 whole entry): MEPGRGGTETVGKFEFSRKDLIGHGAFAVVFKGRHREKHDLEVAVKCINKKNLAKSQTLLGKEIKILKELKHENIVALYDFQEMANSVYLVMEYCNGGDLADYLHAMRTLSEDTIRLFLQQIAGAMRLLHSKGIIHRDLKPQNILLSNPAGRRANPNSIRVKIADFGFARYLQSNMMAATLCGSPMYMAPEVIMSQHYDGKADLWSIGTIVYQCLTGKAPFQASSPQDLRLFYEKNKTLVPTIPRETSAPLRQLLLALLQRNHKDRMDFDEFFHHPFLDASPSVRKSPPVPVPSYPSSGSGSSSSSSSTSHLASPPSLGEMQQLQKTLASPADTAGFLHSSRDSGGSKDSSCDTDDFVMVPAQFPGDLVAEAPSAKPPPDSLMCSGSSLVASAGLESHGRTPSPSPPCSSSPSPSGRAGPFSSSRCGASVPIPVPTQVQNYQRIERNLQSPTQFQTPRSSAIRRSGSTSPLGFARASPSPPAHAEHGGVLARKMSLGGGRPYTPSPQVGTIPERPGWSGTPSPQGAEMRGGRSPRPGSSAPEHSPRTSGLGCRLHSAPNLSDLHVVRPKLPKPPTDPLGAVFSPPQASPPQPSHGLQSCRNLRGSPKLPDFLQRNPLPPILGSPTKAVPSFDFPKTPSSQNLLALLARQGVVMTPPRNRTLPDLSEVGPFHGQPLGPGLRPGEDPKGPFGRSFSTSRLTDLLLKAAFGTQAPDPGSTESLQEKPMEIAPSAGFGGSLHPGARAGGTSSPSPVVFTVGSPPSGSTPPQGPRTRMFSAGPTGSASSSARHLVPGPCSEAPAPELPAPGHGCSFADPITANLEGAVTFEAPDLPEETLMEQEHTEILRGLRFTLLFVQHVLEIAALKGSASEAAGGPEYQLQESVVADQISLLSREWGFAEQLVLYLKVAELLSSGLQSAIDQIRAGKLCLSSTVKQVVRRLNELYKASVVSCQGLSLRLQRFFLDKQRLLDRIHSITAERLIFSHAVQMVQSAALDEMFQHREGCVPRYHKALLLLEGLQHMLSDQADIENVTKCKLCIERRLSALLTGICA
row,SMILES,Kd
1,COc1ccc(-c2ccc3c(N4CCOC[C@@H]4C)nc(N4CCOC[C@@H]4C)nc3n2)cc1CO [AZD-8055],> 30 µM (inactive)
2,C[C@@H](Nc1cc(F)cc(F)c1)c1cc(C(=O)N(C)C)cc2c(=O)cc(N3CCOCC3)oc12 [AZD-8186],> 30 µM (inactive)
3,Cc1ccc(NC(=O)c2ccc(CN3CC[C@H](N(C)C)C3)c(C(F)(F)F)c2)cc1Nc1nccc(-c2cncnc2)n1 [BAFETINIB],> 30 µM (inactive)
4,CCS(=O)(=O)N1CC(CC#N)(n2cc(-c3ncnc4[nH]ccc34)cn2)C1 [BARICITINIB],0.81 µM (active)
5,CNC(=O)c1ccc(-c2cnc3ncc(Cc4ccc5ncccc5c4)n3n2)cc1F [CAPMATINIB],> 30 µM (inactive)

# Molecular target: Insulin-like growth factor 1 receptor (Homo sapiens, UniProt P08069)
# Sequence (P08069 31-736 limits assumed): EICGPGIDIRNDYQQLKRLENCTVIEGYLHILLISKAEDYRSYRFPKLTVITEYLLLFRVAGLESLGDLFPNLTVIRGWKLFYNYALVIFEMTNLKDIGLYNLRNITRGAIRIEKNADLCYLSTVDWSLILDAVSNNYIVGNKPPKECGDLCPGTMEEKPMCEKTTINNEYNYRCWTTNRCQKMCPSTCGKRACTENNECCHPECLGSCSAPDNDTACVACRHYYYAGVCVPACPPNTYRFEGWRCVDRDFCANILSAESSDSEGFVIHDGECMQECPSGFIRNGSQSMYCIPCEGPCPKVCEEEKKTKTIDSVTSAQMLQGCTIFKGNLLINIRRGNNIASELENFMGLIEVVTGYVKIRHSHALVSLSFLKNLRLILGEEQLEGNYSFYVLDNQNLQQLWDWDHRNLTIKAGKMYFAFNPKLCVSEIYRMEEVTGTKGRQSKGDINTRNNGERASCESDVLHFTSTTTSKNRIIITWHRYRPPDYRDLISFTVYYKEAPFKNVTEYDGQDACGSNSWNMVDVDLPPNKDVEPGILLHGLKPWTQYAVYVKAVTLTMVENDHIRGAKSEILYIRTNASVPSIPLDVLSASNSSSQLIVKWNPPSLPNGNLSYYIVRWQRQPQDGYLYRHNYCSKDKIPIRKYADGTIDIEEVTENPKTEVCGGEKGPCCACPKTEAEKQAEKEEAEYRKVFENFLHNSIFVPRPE
# Sequence (P08069 741-1367 limits assumed): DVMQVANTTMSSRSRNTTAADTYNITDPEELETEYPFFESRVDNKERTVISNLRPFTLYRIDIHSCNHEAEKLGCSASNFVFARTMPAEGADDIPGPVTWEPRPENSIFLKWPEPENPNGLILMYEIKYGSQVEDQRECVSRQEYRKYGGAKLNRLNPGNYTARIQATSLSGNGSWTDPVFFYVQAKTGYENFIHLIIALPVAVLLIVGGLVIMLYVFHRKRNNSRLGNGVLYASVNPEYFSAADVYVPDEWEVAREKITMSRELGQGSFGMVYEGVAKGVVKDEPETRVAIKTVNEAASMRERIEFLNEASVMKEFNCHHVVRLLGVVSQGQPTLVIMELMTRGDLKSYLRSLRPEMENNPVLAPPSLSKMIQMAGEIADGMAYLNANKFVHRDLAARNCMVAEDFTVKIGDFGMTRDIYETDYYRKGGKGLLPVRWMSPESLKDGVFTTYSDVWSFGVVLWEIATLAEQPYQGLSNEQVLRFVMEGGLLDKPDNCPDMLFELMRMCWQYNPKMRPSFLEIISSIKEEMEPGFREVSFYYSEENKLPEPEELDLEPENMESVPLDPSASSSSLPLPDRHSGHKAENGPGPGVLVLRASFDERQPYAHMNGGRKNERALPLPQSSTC
row,SMILES,Kd
1,COc1ccc(-c2ccc3c(N4CCOC[C@@H]4C)nc(N4CCOC[C@@H]4C)nc3n2)cc1CO [AZD-8055],> 30 µM (inactive)
2,C[C@@H](Nc1cc(F)cc(F)c1)c1cc(C(=O)N(C)C)cc2c(=O)cc(N3CCOCC3)oc12 [AZD-8186],> 30 µM (inactive)
3,Cc1ccc(NC(=O)c2ccc(CN3CC[C@H](N(C)C)C3)c(C(F)(F)F)c2)cc1Nc1nccc(-c2cncnc2)n1 [BAFETINIB],> 30 µM (inactive)
4,CCS(=O)(=O)N1CC(CC#N)(n2cc(-c3ncnc4[nH]ccc34)cn2)C1 [BARICITINIB],> 30 µM (inactive)
5,CNC(=O)c1ccc(-c2cnc3ncc(Cc4ccc5ncccc5c4)n3n2)cc1F [CAPMATINIB],> 30 µM (inactive)

# Molecular target: TGF-beta receptor type-2 (Homo sapiens, UniProt P37173)
# Sequence (P37173 whole entry): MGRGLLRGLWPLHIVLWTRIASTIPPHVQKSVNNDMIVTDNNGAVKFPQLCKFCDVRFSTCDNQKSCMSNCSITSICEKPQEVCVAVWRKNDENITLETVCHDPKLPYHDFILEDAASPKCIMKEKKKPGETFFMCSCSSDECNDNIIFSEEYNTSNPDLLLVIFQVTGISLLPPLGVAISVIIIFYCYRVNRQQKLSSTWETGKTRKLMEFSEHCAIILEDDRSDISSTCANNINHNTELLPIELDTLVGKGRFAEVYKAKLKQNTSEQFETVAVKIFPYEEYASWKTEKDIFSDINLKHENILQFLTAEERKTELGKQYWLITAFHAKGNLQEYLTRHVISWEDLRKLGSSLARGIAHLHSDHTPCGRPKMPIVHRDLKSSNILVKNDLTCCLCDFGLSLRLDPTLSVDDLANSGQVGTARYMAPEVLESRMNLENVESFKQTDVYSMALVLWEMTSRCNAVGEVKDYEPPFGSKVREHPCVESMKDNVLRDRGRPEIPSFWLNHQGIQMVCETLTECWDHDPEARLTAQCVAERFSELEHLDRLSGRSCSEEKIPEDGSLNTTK
row,SMILES,Kd
1,COc1ccc(-c2ccc3c(N4CCOC[C@@H]4C)nc(N4CCOC[C@@H]4C)nc3n2)cc1CO [AZD-8055],> 30 µM (inactive)
2,C[C@@H](Nc1cc(F)cc(F)c1)c1cc(C(=O)N(C)C)cc2c(=O)cc(N3CCOCC3)oc12 [AZD-8186],> 30 µM (inactive)
3,Cc1ccc(NC(=O)c2ccc(CN3CC[C@H](N(C)C)C3)c(C(F)(F)F)c2)cc1Nc1nccc(-c2cncnc2)n1 [BAFETINIB],> 30 µM (inactive)
4,CCS(=O)(=O)N1CC(CC#N)(n2cc(-c3ncnc4[nH]ccc34)cn2)C1 [BARICITINIB],> 30 µM (inactive)
5,CNC(=O)c1ccc(-c2cnc3ncc(Cc4ccc5ncccc5c4)n3n2)cc1F [CAPMATINIB],> 30 µM (inactive)

# Molecular target: T2, Rab-like protein 3 (Homo sapiens, UniProt Q5HYI8)
# T2 sequence (Q5HYI8 whole entry): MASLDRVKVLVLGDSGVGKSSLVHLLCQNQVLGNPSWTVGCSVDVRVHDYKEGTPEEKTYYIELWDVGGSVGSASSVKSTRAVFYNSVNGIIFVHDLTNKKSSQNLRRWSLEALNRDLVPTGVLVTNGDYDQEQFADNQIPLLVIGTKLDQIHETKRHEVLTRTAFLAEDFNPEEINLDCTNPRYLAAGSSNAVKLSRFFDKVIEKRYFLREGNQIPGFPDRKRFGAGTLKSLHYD
row,SMILES,Kd
1,COc1ccc(-c2ccc3c(N4CCOC[C@@H]4C)nc(N4CCOC[C@@H]4C)nc3n2)cc1CO [AZD-8055],> 30 µM (inactive)
2,C[C@@H](Nc1cc(F)cc(F)c1)c1cc(C(=O)N(C)C)cc2c(=O)cc(N3CCOCC3)oc12 [AZD-8186],> 30 µM (inactive)
3,Cc1ccc(NC(=O)c2ccc(CN3CC[C@H](N(C)C)C3)c(C(F)(F)F)c2)cc1Nc1nccc(-c2cncnc2)n1 [BAFETINIB],> 30 µM (inactive)
4,CCS(=O)(=O)N1CC(CC#N)(n2cc(-c3ncnc4[nH]ccc34)cn2)C1 [BARICITINIB],> 30 µM (inactive)
5,CNC(=O)c1ccc(-c2cnc3ncc(Cc4ccc5ncccc5c4)n3n2)cc1F [CAPMATINIB],> 30 µM (inactive)

# Molecular target: T3, MAP kinase-activated protein kinase 5 (Homo sapiens, UniProt Q8IW41)
# T3 sequence (Q8IW41 whole entry): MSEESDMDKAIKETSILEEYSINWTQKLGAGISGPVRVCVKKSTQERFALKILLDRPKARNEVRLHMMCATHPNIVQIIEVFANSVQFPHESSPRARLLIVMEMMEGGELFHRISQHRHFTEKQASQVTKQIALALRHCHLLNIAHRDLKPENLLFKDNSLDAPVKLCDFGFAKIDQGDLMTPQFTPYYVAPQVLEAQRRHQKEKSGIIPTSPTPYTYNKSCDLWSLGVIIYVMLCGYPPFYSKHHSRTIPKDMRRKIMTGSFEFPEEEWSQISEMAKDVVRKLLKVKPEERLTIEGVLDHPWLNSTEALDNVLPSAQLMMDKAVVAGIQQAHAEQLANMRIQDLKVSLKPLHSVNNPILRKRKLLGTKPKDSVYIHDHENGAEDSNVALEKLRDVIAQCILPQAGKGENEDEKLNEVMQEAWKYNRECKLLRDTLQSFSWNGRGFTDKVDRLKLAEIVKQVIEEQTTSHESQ
row,SMILES,Kd
1,COc1ccc(-c2ccc3c(N4CCOC[C@@H]4C)nc(N4CCOC[C@@H]4C)nc3n2)cc1CO [AZD-8055],> 30 µM (inactive)
2,C[C@@H](Nc1cc(F)cc(F)c1)c1cc(C(=O)N(C)C)cc2c(=O)cc(N3CCOCC3)oc12 [AZD-8186],> 30 µM (inactive)
3,Cc1ccc(NC(=O)c2ccc(CN3CC[C@H](N(C)C)C3)c(C(F)(F)F)c2)cc1Nc1nccc(-c2cncnc2)n1 [BAFETINIB],> 30 µM (inactive)
4,CCS(=O)(=O)N1CC(CC#N)(n2cc(-c3ncnc4[nH]ccc34)cn2)C1 [BARICITINIB],> 30 µM (inactive)
5,CNC(=O)c1ccc(-c2cnc3ncc(Cc4ccc5ncccc5c4)n3n2)cc1F [CAPMATINIB],> 30 µM (inactive)

# Molecular target: Focal adhesion kinase 1 (Homo sapiens, UniProt Q05397)
# Sequence (Q05397 whole entry): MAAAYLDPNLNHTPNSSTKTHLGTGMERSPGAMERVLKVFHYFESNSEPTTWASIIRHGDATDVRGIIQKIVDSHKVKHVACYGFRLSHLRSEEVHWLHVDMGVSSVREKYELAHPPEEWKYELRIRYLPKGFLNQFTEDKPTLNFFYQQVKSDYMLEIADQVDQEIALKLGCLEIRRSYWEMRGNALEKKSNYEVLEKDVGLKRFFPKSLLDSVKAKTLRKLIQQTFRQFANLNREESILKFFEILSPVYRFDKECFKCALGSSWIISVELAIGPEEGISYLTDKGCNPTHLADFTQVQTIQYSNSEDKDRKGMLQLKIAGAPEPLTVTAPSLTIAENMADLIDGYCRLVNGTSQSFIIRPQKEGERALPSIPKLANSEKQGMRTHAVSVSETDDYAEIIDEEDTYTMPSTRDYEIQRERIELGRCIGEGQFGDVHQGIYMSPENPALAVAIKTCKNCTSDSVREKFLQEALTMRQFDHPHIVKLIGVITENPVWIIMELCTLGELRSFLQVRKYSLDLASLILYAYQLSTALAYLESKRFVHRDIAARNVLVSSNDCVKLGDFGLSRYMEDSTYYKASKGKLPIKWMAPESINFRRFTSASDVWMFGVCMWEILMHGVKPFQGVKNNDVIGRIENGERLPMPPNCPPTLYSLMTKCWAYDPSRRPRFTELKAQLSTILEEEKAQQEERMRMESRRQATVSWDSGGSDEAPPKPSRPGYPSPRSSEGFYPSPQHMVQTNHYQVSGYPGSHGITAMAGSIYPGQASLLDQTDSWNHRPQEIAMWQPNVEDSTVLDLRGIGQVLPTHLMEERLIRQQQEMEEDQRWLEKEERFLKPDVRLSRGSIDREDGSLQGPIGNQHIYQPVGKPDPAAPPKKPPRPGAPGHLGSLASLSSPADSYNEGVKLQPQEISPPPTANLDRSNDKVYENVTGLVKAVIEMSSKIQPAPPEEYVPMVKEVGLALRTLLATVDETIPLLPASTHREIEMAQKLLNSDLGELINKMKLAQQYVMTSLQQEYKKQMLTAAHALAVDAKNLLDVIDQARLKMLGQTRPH
row,SMILES,Kd
1,COc1ccc(-c2ccc3c(N4CCOC[C@@H]4C)nc(N4CCOC[C@@H]4C)nc3n2)cc1CO [AZD-8055],> 30 µM (inactive)
2,C[C@@H](Nc1cc(F)cc(F)c1)c1cc(C(=O)N(C)C)cc2c(=O)cc(N3CCOCC3)oc12 [AZD-8186],> 30 µM (inactive)
3,Cc1ccc(NC(=O)c2ccc(CN3CC[C@H](N(C)C)C3)c(C(F)(F)F)c2)cc1Nc1nccc(-c2cncnc2)n1 [BAFETINIB],> 30 µM (inactive)
4,CCS(=O)(=O)N1CC(CC#N)(n2cc(-c3ncnc4[nH]ccc34)cn2)C1 [BARICITINIB],> 30 µM (inactive)
5,CNC(=O)c1ccc(-c2cnc3ncc(Cc4ccc5ncccc5c4)n3n2)cc1F [CAPMATINIB],> 30 µM (inactive)

# Molecular target: Calcium/calmodulin-dependent protein kinase kinase 2 (Homo sapiens, UniProt Q96RR4)
# Sequence (Q96RR4 whole entry): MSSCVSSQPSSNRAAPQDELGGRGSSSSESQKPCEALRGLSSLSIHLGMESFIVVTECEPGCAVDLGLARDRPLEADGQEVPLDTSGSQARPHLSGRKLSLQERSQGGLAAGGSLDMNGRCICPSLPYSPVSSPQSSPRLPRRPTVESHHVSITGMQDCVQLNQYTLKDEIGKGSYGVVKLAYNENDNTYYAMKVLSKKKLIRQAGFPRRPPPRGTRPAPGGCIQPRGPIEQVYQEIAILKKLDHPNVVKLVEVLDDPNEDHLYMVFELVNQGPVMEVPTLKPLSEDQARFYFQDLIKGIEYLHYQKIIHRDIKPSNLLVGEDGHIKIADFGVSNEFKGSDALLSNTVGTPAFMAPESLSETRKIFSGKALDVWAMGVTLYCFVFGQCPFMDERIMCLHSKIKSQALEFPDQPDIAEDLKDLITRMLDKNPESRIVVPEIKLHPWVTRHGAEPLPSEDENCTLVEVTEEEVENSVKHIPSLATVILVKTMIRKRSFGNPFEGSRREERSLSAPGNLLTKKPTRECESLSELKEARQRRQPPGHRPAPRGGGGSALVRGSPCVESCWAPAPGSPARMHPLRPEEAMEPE
row,SMILES,Kd
1,COc1ccc(-c2ccc3c(N4CCOC[C@@H]4C)nc(N4CCOC[C@@H]4C)nc3n2)cc1CO [AZD-8055],> 30 µM (inactive)
2,C[C@@H](Nc1cc(F)cc(F)c1)c1cc(C(=O)N(C)C)cc2c(=O)cc(N3CCOCC3)oc12 [AZD-8186],> 30 µM (inactive)
3,Cc1ccc(NC(=O)c2ccc(CN3CC[C@H](N(C)C)C3)c(C(F)(F)F)c2)cc1Nc1nccc(-c2cncnc2)n1 [BAFETINIB],> 30 µM (inactive)
4,CCS(=O)(=O)N1CC(CC#N)(n2cc(-c3ncnc4[nH]ccc34)cn2)C1 [BARICITINIB],> 30 µM (inactive)
5,CNC(=O)c1ccc(-c2cnc3ncc(Cc4ccc5ncccc5c4)n3n2)cc1F [CAPMATINIB],> 30 µM (inactive)

# Molecular target: T4, Phosphorylase b kinase gamma catalytic chain, liver/testis isoform (Homo sapiens, UniProt P15735)
# T4 sequence (P15735 whole entry): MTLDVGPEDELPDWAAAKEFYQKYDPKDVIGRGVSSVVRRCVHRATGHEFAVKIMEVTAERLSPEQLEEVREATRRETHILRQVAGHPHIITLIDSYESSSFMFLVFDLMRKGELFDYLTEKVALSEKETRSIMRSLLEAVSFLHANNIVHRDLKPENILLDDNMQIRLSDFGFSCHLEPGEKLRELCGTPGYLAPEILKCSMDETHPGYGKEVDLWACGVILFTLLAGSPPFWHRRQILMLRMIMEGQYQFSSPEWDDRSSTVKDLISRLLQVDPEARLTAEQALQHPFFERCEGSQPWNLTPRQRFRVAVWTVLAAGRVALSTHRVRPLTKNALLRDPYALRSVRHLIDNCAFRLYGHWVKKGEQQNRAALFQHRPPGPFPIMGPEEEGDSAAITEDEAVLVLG
row,SMILES,Kd
1,COc1ccc(-c2ccc3c(N4CCOC[C@@H]4C)nc(N4CCOC[C@@H]4C)nc3n2)cc1CO [AZD-8055],> 30 µM (inactive)
2,C[C@@H](Nc1cc(F)cc(F)c1)c1cc(C(=O)N(C)C)cc2c(=O)cc(N3CCOCC3)oc12 [AZD-8186],> 30 µM (inactive)
3,Cc1ccc(NC(=O)c2ccc(CN3CC[C@H](N(C)C)C3)c(C(F)(F)F)c2)cc1Nc1nccc(-c2cncnc2)n1 [BAFETINIB],> 30 µM (inactive)
4,CCS(=O)(=O)N1CC(CC#N)(n2cc(-c3ncnc4[nH]ccc34)cn2)C1 [BARICITINIB],> 30 µM (inactive)
5,CNC(=O)c1ccc(-c2cnc3ncc(Cc4ccc5ncccc5c4)n3n2)cc1F [CAPMATINIB],> 30 µM (inactive)
